From article PMC9367601 (Cancers, 2022)

What follows are compounds tested against T1, Epidermal Growth Factor Receptor (EGFR), extracellular domain (EGFR-ECD) (Homo sapiens, UniProt P00533) (assay: cell-based).
T1 construct: full-length EGFR in DiscoverX PathHunter enzyme-complementation cells, EGF-stimulated
Design: DiscoverX PathHunter EGFR dimerization/activation assay, chemiluminescence
Method: The inhibition of the EGFR dimerization assay was conducted using the PathHunter kit following the producer instructions and with cetuximab as a positive control. For IC50 determination, the selected compounds were tested at different concentration (range 0.1–100 µM) and the IC50 values were calculated by the four parameters logistic (4-PL) model. Evaluation was based on means from at least four independent experiments. The discovery of orally available small molecules able to impair the EGFR activation targeting the extracellular domain could be of great interest for cancer treatment. To pursue this goal, a suitable high/medium throughput screening method is required. In this respect, a commercially available kit (PathHunter® from DiscoverX©; San Francisco, CA, USA) for the screening of compounds able to prevent EGFR activation (either dimerization or autophosphorylation) has been developed in recent years. This assay measures the chemiluminescent signal produced as a consequence of ligand-induced dimerization/activation of EGFR [16]. Our interest in kinase inhibitors and the readily availability of such kit prompted us to start a campaign for the discovery of small molecules targeting the extracellular domain of EGFR.

T1 sequence (P00533 25-1210): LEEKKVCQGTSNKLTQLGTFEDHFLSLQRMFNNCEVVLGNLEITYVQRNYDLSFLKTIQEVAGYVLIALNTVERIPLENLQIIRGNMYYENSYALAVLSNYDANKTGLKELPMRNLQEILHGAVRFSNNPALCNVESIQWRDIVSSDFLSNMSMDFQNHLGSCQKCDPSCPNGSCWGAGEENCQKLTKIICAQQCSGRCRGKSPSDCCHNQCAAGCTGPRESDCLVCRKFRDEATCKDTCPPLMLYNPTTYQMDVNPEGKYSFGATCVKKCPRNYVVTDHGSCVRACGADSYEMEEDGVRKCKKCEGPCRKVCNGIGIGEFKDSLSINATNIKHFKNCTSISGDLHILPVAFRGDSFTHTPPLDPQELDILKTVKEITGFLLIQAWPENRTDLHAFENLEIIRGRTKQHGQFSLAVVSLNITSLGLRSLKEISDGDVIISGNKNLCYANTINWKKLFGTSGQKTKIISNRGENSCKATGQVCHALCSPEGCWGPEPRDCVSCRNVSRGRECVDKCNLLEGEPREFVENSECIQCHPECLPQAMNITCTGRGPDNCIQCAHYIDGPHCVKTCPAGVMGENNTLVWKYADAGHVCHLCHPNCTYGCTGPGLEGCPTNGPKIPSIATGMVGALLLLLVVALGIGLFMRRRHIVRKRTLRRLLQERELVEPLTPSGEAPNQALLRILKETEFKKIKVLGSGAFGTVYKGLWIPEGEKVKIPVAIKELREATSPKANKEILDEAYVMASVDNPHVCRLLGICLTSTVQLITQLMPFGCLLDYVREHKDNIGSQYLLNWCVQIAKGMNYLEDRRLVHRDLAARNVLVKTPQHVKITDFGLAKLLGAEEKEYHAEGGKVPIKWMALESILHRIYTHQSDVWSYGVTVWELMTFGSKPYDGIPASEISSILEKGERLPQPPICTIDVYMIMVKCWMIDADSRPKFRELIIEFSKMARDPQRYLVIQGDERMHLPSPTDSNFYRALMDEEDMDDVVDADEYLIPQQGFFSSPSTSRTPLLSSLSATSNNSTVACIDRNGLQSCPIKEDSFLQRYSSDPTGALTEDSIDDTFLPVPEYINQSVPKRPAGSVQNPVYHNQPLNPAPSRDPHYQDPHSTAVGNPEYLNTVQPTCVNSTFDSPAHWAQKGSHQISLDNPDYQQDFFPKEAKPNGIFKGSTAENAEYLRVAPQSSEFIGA

Row | SMILES | inhibition at 10 µM [%] | inhibition at 50 µM [%]
1 | Nc1ccc2cc3cc(N)ccc3cc2c1 [DSF001] | 0 | 0
2 | CC(=O)c1cccc2cc3c(C(C)=O)cccc3cc12 [DSF002] | 0 | 0
3 | ClCc1c2ccccc2c(CCl)c2ccccc12 [DSF003] | 35 ± 5 | 50 ± 1
4 | N#CCc1c2ccccc2c(CC#N)c2ccccc12 [DSF004] | 0 | 1 ± 1
5 | O=C(O)c1cccc2cc3c(C(=O)O)cccc3cc12 [DSF005] | 0 | 1 ± 4
6 | c1ccc2c(CN3CCOCC3)c3ccccc3c(CN3CCOCC3)c2c1 [DSF006] | 19 ± 1 | 27 ± 4
7 | c1ccc2c(CN3CCCCC3)c3ccccc3c(CN3CCCCC3)c2c1 [DSF007] | 16 ± 4 | 16 ± 4
8 | CC(=O)Nc1ccc(O)c2c1C(=O)c1ccccc1C2=O [DSF008] | 0 | 14 ± 2
9 | CS(=O)(=O)Nc1ccc(NC(=O)c2ccc3c(c2)C(=O)c2c(NCCOCCN)ccc(NCCOCCN)c2C3=O)cc1 [DSF009] | 8 ± 1 | 48 ± 1
10 | CS(=O)(=O)Nc1ccc(NC(=O)c2ccc3c(c2)C(=O)c2c(NCCN4CCNCC4)ccc(NCCN4CCNCC4)c2C3=O)cc1 [DSF010] | 28 ± 3 | 34 ± 2
11 | O=C(O)COCC(=O)OCc1cc(O)c2c(c1)C(=O)c1cccc(O)c1C2=O [DSF011] | 9 ± 5 | 39 ± 1
12 | CC(NC(=O)C(NC(=O)OCc1ccccc1)C(C)C)C(=O)OCCCCCNc1ccc(NCCCCCOC(=O)C(C)NC(=O)C(NC(=O)OCc2ccccc2)C(C)C)c2c1C(=O)c1ccccc1C2=O (centres unmarked) [DSF012] | 0 | 20 ± 5
13 | CC(NC(=O)C(NC(=O)OCc1ccccc1)C(C)C)C(=O)OCCCCCNc1ccc(NCCCCCO)c2c1C(=O)c1ccccc1C2=O (centres unmarked) [DSF013] | 0 | 0
14 | C=CCOc1cccc2c1C(=O)c1cccc(OCC=C)c1C2=O [DSF014] | 0 | 0
15 | CN(C)CCNc1ccc(F)c2c1C(=O)c1ccccc1C2=O [DSF015] | 39 ± 4 | 48 ± 1
16 | O=C1c2ccccc2C(=O)c2c(NCCNCCO)ccc(F)c21 [DSF016] | 33 ± 5 | 25 ± 3
17 | O=C(CN1CCCCC1)Nc1ccc(NC(=O)CN2CCCCC2)c2c1C(=O)c1ccccc1C2=O [DSF017] | 9 ± 2 | 14 ± 1
18 | O=C(CN1CCOCC1)Nc1ccc(NC(=O)CN2CCOCC2)c2c1C(=O)c1ccccc1C2=O [DSF018] | 16 ± 3 | 38 ± 5
19 | O=C(CN1CCCCC1)Nc1ccc(NC(=O)CN2CCCCC2)c2c1C(=O)c1c(O)ccc(O)c1C2=O [DSF019] | 35 ± 5 | 33 ± 1
20 | O=C(CN1CCOCC1)Nc1ccc(NC(=O)CN2CCOCC2)c2c1C(=O)c1c(O)ccc(O)c1C2=O [DSF020] | 33 ± 5 | 29 ± 1
21 | O=C(CCN1CCOCC1)Nc1ccc(NC(=O)CCN2CCOCC2)c2c1C(=O)c1ccccc1C2=O [DSF021] | 16 ± 4 | 30 ± 5
22 | Nc1cccc(-c2cc(-c3ccccc3)ncn2)c1 [DSF022] | 0 | 4 ± 4

Row | SMILES | inhibition at 10 µM [%] | inhibition at 50 µM [%]
23 | Nc1cccc(-c2cc(-c3ccc(C(=O)O)cc3)ncn2)c1 [DSF023] | 22 ± 1 | 8 ± 2
24 | O=C(O)c1ccc(-c2cc(-c3cccc(C(F)(F)F)c3)nc(O)n2)cc1 [DSF024] | 16 ± 1 | 5 ± 3
25 | O=C(O)c1ccc(-c2cc(-c3cccc(C(F)(F)F)c3)ncn2)cc1 [DSF025] | 6 ± 5 | 34 ± 1
26 | FC(F)(F)c1cccc(-c2cc(-c3ccccc3)ncn2)c1 [DSF026] | 0 | 0
27 | c1ccc(-c2cccc(-c3cc(-c4ccccc4)ncn3)c2)cc1 [DSF027] | 0 | 0
28 | Brc1cccc(-c2cc(-c3ccccc3)ncn2)c1 [DSF028] | 0 | 0
29 | O=C(O)c1ccc(-c2ccc(-c3ccccc3)cc2O)cc1 [DSF029] | 1 ± 4 | 0
30 | O=C(NCc1ccccc1)c1ccc(-c2ccc(-c3ccccc3)cc2O)cc1 [DSF030] | 0 | 0
31 | COc1cccc(Nc2ccc3cc(-c4cccs4)c(=O)oc3n2)c1 [DSF031] | 0 | 19 ± 1
32 | CSc1cccc(Nc2ccc3cc(-c4cccs4)c(=O)oc3n2)c1 [DSF032] | 0 | 3 ± 5
33 | COc1cccc(Nc2nc(N(C)C)c3cc(-c4c(Cl)cccc4Cl)c(=O)oc3n2)c1 [DSF033] | 0 | 12 ± 3
34 | COc1cccc(Nc2nc(O)c3cc(-c4c(Cl)cccc4Cl)c(=O)oc3n2)c1 [DSF034] | 14 ± 2 | 0
35 | COc1cccc(Nc2nc(O)c3cc(-c4cc(OC)cc(OC)c4)c(=O)oc3n2)c1 [DSF035] | 0 | 0
36 | COc1cccc(Nc2nc(O)c3cc(-c4ccccc4)c(=O)oc3n2)c1 [DSF036] | 0 | 0
37 | O=c1oc2ncnc(Nc3cccc(-c4ccccc4)c3)c2cc1-c1c(Cl)cccc1Cl [DSF037] | 12 ± 4 | 40 ± 5
38 | Cc1cccc(Nc2ncnc3oc(=O)c(-c4c(Cl)cccc4Cl)cc23)c1 [DSF038] | 0 | 24 ± 5
39 | CN1CCN(c2ncnc3oc(=O)c(-c4c(Cl)cccc4Cl)cc23)CC1 [DSF039] | 0 | 10 ± 2
40 | CCOC(=O)c1cc2cnc(O)nc2oc1=O [DSF040] | 0 | 0
41 | O=c1oc2nc(Nc3cccc(-c4ccccc4)c3)nc(O)c2cc1-c1cccc(Br)c1 [DSF041] | 0 | 0
42 | COC(=O)Cc1c(C)c2ccc(O)cc2oc1=O [DSF042] | 0 | 0
43 | COc1ccc2c(C)c(CC(=O)Nc3ccc(C(=O)O)cc3)c(=O)oc2c1 [DSF043] | 0 | 0
44 | COc1ccc2c(C)c(CCC(=O)Nc3ccc(C(=O)O)cc3)c(=O)oc2c1C [DSF044] | 0 | 0

Row | SMILES | inhibition at 10 µM [%] | inhibition at 50 µM [%]
45 | COc1ccc2c(C)c(CCC(=O)Nc3ccc(C(=O)O)cc3)c(=O)oc2c1 [DSF045] | 0 | 0
46 | COCCOc1ccc2c(C)c(CC(=O)Nc3ccc(C(=O)O)cc3)c(=O)oc2c1 [DSF046] | 0 | 0
47 | COc1ccc2c(C)c(CC(=O)Nc3cccc(C(=O)O)c3)c(=O)oc2c1C [DSF047] | 0 | 0
48 | COCCOc1ccc2c(C)c(CCC(=O)Nc3ccc(C(=O)O)cc3)c(=O)oc2c1 [DSF048] | 9 ± 3 | 3 ± 4
49 | Cc1c(CCC(=O)Nc2cccc(C(=O)O)c2)c(=O)oc2nc3oc4c(c3cc12)CCCC4 [DSF049] | 35 ± 2 | 36 ± 3
50 | Cc1c(CC(=O)Nc2cccc(O)c2)c(=O)oc2c(C)c3oc4c(c3cc12)CCCC4 [DSF050] | 24 ± 4 | 32 ± 2
51 | Cc1c(CC(=O)Nc2ccc(NS(C)(=O)=O)cc2)c(=O)oc2c(C)c3oc4c(c3cc12)CCCC4 [DSF051] | 40 ± 1 | 50 ± 1
52 | CC(=O)Nc1ccc(NC(=O)Cc2c(C)c3cc4c5c(oc4c(C)c3oc2=O)CCCC5)cc1 [DSF052] | 41 ± 4 | 49 ± 2
53 | Cc1c(CC(=O)Nc2ccc(C(N)=O)cc2)c(=O)oc2c(C)c3oc4c(c3cc12)CCCC4 [DSF053] | 39 ± 5 | 43 ± 1
54 | Cc1c(C)c2cc3c4c(oc3c(O)c2oc1=O)CCCC4 [DSF054] | 8 ± 4 | 46 ± 4
55 | Cc1oc2c(C)c3oc(=O)c(CC(=O)NCc4ccccc4Cl)c(C)c3cc2c1C [DSF055] | 46 ± 1 | 46 ± 5
56 | Cc1ccc(NC(=O)Nc2ccc(Nc3cc(-c4ccccc4)ncn3)cc2)cc1 [DSF056] | 0 | 22 ± 5
57 | O=C(Nc1ccc(Nc2cc(-c3ccccc3)ncn2)cc1)Nc1ccc(C(=O)O)cc1 [DSF057] | 17 ± 2 | 44 ± 5
58 | COc1cccc(Nc2ncc(C(=O)O)c(O)n2)c1 [DSF058] | 12 ± 2 | 5 ± 5
59 | Cc1ccc([N+](=O)[O-])cc1Nc1nccc(-c2cccnc2)n1 [DSF059] | 0 | 0
60 | Cc1nc(Cl)cc(Nc2ncc(C(=O)O)s2)n1 [DSF060] | 0 | 0
61 | O=C(NC(=O)c1ccccc1)Nc1cccc(Oc2ncc(Cl)cn2)c1 [DSF061] | 20 ± 4 | 1 ± 1
62 | O=C(NC(=S)Nc1cccc(Oc2ncc(Cl)cn2)c1)c1ccccc1 [DSF062] | 9 ± 3 | 21 ± 2
63 | O=C(NC(=O)c1ccccc1[N+](=O)[O-])Nc1cccc(Oc2ncc(Cl)cn2)c1 [DSF063] | 0 | 5 ± 5
64 | CCc1cnc(Oc2cccc(NC(=O)NC(=O)c3ccccc3)c2)nc1 [DSF064] | 0 | 0
